How the values were obtained:
I/R-injured mouse hearts = experiment: Langendorff ischemia/reperfusion injury of isolated mouse hearts, post-conditioning (peptide at reperfusion); infarct size by TTC; parameters: species or system mouse (C57BL/6J); conditions: isolated C57BL6 hearts, peptide 1.47 nmol/L during 60 min reperfusion after 20 min ischemia, Control I/R 37.6±1.3%, Mean±SEM
Experimental: Hearts of C57BL6 mice were freshly isolated and subject to ischemia reperfusion (I/R) injury using a Langendorff perfusion system. Hearts were pre-perfused with Krebs-Henseleit buffer for 40 minutes, and then I/R injury was consistently produced by subjecting the hearts to 20 minutes of normo-thermic ischemia, followed by reperfusion for 60 minutes with or without peptide fragment V1, V2, or V3 at the same molar concentration of 1.47 nmol/L. Sections of hearts were stained with 2,3,5-TTC and infarct area calculated as % of risk area.
Post-conditioning I/R experiments were performed as illustrated in FIG. 4A. Different peptide fragments V1-9aa, V2-10aa, V3-16aa, and V3-11aa were used at the same molar concentration of 1.47 nmol/L. Sections of hearts were stained with 2,3,5-TTC and infarct area calculated as % of risk area.
Male C57BL/6J mice (8-12 weeks old) were obtained from the Charles River Laboratories (Wilmington, Mass., USA). After anesthetized with intraperitoneal pentobarbitone (60 mg/kg), mouse hearts were harvested immediately and the aortas were cannulated with a 20-gauge stainless steel blunt needle and transferred to the Langendorff rig and perfused retrograde instantly with modified Krebs-Henseleit buffer (KHB) […] as previously described. See Bouhidel et al. Front Biosci (Landmark Ed) 2014; 19:566-570, and Zhang et al., J Mol Cell Cardiol. 2010; 48:1060-1070. […] Hearts were then harvested for analyses of infarct size. For post-conditioning treatment with peptide fragments, hearts underwent 40 minutes of KHB perfusion, 20 minutes of global ischemia, and a 60 minute reperfusion with different peptide fragments.
At the end of I/R protocol, hearts were sliced perpendicular to the long-axis of the heart at 1 mm intervals and stained with 1% triphenyl tetrazolium chloride (TTC) in PBS for 10 minutes at room temperature. After washing with PBS once, sections of the hearts will be fixed in 10% formalin overnight. […] Infarct size is expressed as an infarct-to-risk zone ratio (the risk zone is the whole ventricular volume in this global ischemic model).

[1] = system: endothelial cell NO production; experiment: Endothelial cell nitric oxide production by electron spin resonance (ESR); assay type: cell-based, bovine; conditions: endothelial cells, 37° C., 60 minutes, Mean±SEM
Experimental: (§1) Confluent endothelial cells were incubated with different peptide fragments V1-9aa, V2-10aa, and V3-11aa at the same molar concentration of 1.47 nmol/L at 37° C. for 60 minutes in modified Krebs/HEPEs buffer containing the NO-specific spin trap Fe^2+(DETC)2. Cells were then gently collected for analysis of NO production by using electron spin resonance (ESR).
as §1, with “different combination of” for “different”, “V1-9aa alone, V1-9aa+V2-10aa (1:1), V1-9aa+V3-11aa (1:1),” for “V1-9aa, V2-10aa,”, “V2-10aa+V3-11aa (1:1)” for “V3-11aa”, “same total” for “same”
To further identify the synergistic effects peptide fragments according to the present invention, endothelial cells were treated with different combinations of peptide fragments. The treatment groups were: V1-9aa+V2-10aa group, V1-9aa+V3-11aa group, and V2-10aa+V3-11aa group. The amount of each peptide fragment was 50% of the total amount by molar concentration (or equal volume at the same molar concentration) of peptide fragments in the composition, and the final molar concentration was 1.47 nmol/L. Control group (no peptide treatment) and V1-9aa group (1.47 nmol/L) were used to compare with the combination groups. The results, shown in FIG. 7, indicate that the V1-9aa+V2-10aa group produced more NO than the V1-9aa group (V1-9aa+V2-10aa: 1.90±0.50 fold vs. V1-9aa: 1.42±0.18 fold, p<0.05).
Bovine aortic endothelial cells (BAECs, Cell Systems, Kirkland, Wash., USA) were cultured in media 199 containing 10% fetal bovine serum (FBS) as previously described. See Chalupsky & Cai, PNAS USA 2005; 102:9056-9061; and Nguyen & Cai, PNAS USA 2006; 103:6530-6535.

[2] = single peptide 1.47 nmol/L, ESR (FIG. 6)

Substance: V1-9aa: SEQ ID NO: 4, residues 304-312 of human netrin-1: CDCRHNTAG (listed as Homo sapiens)
- infarct size (infarct area as % of risk area) (I/R-injured mouse hearts): 16.8±2.2%
- NO production, fold vs. control ([1]; combination experiment (FIG. 7), 1:1, total 1.47 nmol/L, ESR): 1.42±0.18 fold
- NO production, fold vs. control [1, 2]: 1.50±0.09 fold

Substance: V3-11aa: SEQ ID NO: 6, residues 423-433 of human netrin-1: CPCKDGVTGIT (listed as Homo sapiens)
- infarct size (infarct area as % of risk area) (I/R-injured mouse hearts): 16.7±3.0%
- NO production, fold vs. control [1, 2]: 1.45±0.11 fold

Substance: V2-10aa: SEQ ID NO: 5, residues 368-377 of human netrin-1: CLNCRHNTAG (listed as Homo sapiens)
- infarct size (infarct area as % of risk area) (I/R-injured mouse hearts): 18.6±1.7%
- NO production, fold vs. control [1, 2]: 1.44±0.08 fold

Source: patent US10550163B2 (The Regents of the University of California, priority 2014, dated 2020)
